In US9580444B2, “Polycyclic pyrazolinone derivative and herbicide comprising same as effective component thereof” (priority 2013, dated 2017):

Assays:
Assay type in all cases: in vivo
[1] = system: Cyperus difformis (smallflower umbrella plant); assay: Test Example-1: herbicidal effect by a treatment before weeds are generated under submerged conditions; conditions: 500 g a.i/ha, pre-emergence treatment, about 15 days after treatment, score 0-5
In short: (§1)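 Flooded paddy-soil cups, seeded and treated by submersion application on sowing day; rated 0–5 ~15 d later.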

[2] = system: Echinochloa oryzicola (barnyard grass); assay: as above; conditions: 500 g a.i/ha, pre-emergence treatment, about 15 days after treatment, score 0-5
In short: as §1

[3] = system: Eleocharis acicularis (needle spikerush); assay: as above; conditions: 500 g a.i/ha, pre-emergence treatment, about 15 days after treatment, score 0-5
In short: as §1

[4] = system: Monochoria vaginalis (monochoria); assay: as above; conditions: 500 g a.i/ha, pre-emergence treatment, about 15 days after treatment, score 0-5
In short: as §1

[5] = system: Scirpus juncoides (bulrush); assay: as above; conditions: 500 g a.i/ha, pre-emergence treatment, about 15 days after treatment, score 0-5
In short: as §1

[6] = system: other annual broad leaf weeds (Lindernia procumbens, Rotala indica, Elatine triandra); assay: as above; conditions: 500 g a.i/ha, pre-emergence treatment, about 15 days after treatment, score 0-5
In short: as §1

[7] = system: Amaranthus viridis (green amaranthus); assay: Test Example-2: herbicidal effect by a soil treatment before weeds are generated under upland field conditions; conditions: application amount 500 g a.i/ha, soil spray treatment before weeds are generated, about 21 days after the treatment, score 0 to 5
Description: (§2) Using the formulation prepared according to the methods described above, the herbicidal effect of the bicyclic pyrazolinone derivative of the invention according to the methods shown in Test Examples below was examined. The herbicidal effect with respect to the test weeds or the phytotoxicity with respect to the test crops was examined according to the following criteria, and evaluated in six stage scores of 0 to 5. A vat having an area of 81 cm^2 and a depth of 3.5 cm was filled with upland soil, then, seeds of Amaranthus viridis (green amaranthus), Chenopodium album (common lambsquarters), and corn were seeded thereto, and the seeds were covered with soil of about 0.5 cm. Next day, a wettable powder or an emulsifiable concentrate of the compound of the present invention prepared according to Formulation Example was diluted, and a spray treatment was uniformly performed on the covered oil so as to be a predetermined dosage. The herbicidal effect with respect to the test weeds and the phytotoxicity with respect to corn about 21 days after the treatment were evaluated according to the evaluation criteria in six stages of 0 to 5 described above.

[8] = system: Chenopodium album (common lambsquarters); assay: as above; conditions: application amount 500 g a.i/ha, soil spray treatment before weeds are generated, about 21 days after the treatment, score 0 to 5
Description: as §2

corn [9] = assay: Test Example-2: phytotoxicity by a soil treatment before weeds are generated under upland field conditions; conditions: application amount 500 g a.i/ha, soil spray treatment before weeds are generated, about 21 days after the treatment, score 0 to 5
Description: as §2

[10] = system: Abutilon theophrasti (velvetleaf); assay: Test Example-4: herbicidal effect by a foliage treatment after weeds are generated under upland field conditions; conditions: 500 g a.i/ha, foliage treatment after emergence, about 14 days after treatment, score 0-5
In short: (§3)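 Compounds were applied as diluted formulations by foliar spray (4000 L water/ha) to 14-day-old plants grown in upland soil. Weed control and corn phytotoxicity were each graded 0 to 5 around 14 days after spraying.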

[11] = system: Amaranthus viridis (green amaranthus); assay: as above; conditions: 500 g a.i/ha, foliage treatment after emergence, about 14 days after treatment, score 0-5
In short: as §3

[12] = system: Chenopodium album (common lambsquarters); assay: as above; conditions: 500 g a.i/ha, foliage treatment after emergence, about 14 days after treatment, score 0-5
In short: as §3

corn [13] = assay: Test Example-4: phytotoxicity by a foliage treatment after weeds are generated under upland field conditions; conditions: 500 g a.i/ha, foliage treatment after emergence, about 14 days after treatment, score 0-5
In short: as §3

Structure (SMILES) | Herbicidal effect Cyperus difformis [1] | Herbicidal effect Echinochloa oryzicola [2] | Herbicidal effect Eleocharis acicularis [3] | Herbicidal effect Monochoria vaginalis [4] | Herbicidal effect Scirpus juncoides [5] | Herbicidal effect Broadleaf weed [6] | Herbicidal effect Amaranthus viridis [7] | Herbicidal effect Chenopodium album [8] | Phytotoxicity Corn (corn [9]) | Herbicidal effect Abutilon theophrast [10] | Herbicidal effect Amaranthus viridis [11] | Herbicidal effect Chenopodium album [12] | Phytotoxicity Corn (corn [13])
C#CCOc1cc(-c2c(Cl)n3n(c2=O)CCCC3)c(Cl)cc1Cl [Example 1-302] | 5 (Herbicidal effect/phytotoxicity was 90% or greater) | 5 (Herbicidal effect/phytotoxicity was 90% or greater) | 5 (Herbicidal effect/phytotoxicity was 90% or greater) | 5 (Herbicidal effect/phytotoxicity was 90% or greater) | 5 (Herbicidal effect/phytotoxicity was 90% or greater) | 5 (Herbicidal effect/phytotoxicity was 90% or greater) | 5 (Herbicidal effect/phytotoxicity was 90% or greater) | 5 (Herbicidal effect/phytotoxicity was 90% or greater) | 2 (Herbicidal effect/phytotoxicity was 30% to 50%) | 5 (Herbicidal effect/phytotoxicity was 90% or greater) | 5 (Herbicidal effect/phytotoxicity was 90% or greater) | 5 (Herbicidal effect/phytotoxicity was 90% or greater) | 1 (Herbicidal effect/phytotoxicity was 10% to 30%)
C#CCOc1cc(-c2c(Cl)n3n(c2=O)CCCCC3)c(Cl)cc1Cl [Example 1-303] | 5 (Herbicidal effect/phytotoxicity was 90% or greater) | 5 (Herbicidal effect/phytotoxicity was 90% or greater) | 5 (Herbicidal effect/phytotoxicity was 90% or greater) | 5 (Herbicidal effect/phytotoxicity was 90% or greater) | 5 (Herbicidal effect/phytotoxicity was 90% or greater) | 5 (Herbicidal effect/phytotoxicity was 90% or greater) | 5 (Herbicidal effect/phytotoxicity was 90% or greater) | 5 (Herbicidal effect/phytotoxicity was 90% or greater) | 0 (Herbicidal effect/phytotoxicity was 0% to 10%) | 5 (Herbicidal effect/phytotoxicity was 90% or greater) | 5 (Herbicidal effect/phytotoxicity was 90% or greater) | 5 (Herbicidal effect/phytotoxicity was 90% or greater) | 1 (Herbicidal effect/phytotoxicity was 10% to 30%)
C#CCOc1cc(-c2c(F)n3n(c2=O)CCCC3)c(Cl)cc1Cl [Example 1-358] | 5 (Herbicidal effect/phytotoxicity was 90% or greater) | 5 (Herbicidal effect/phytotoxicity was 90% or greater) | 5 (Herbicidal effect/phytotoxicity was 90% or greater) | 5 (Herbicidal effect/phytotoxicity was 90% or greater) | 5 (Herbicidal effect/phytotoxicity was 90% or greater) | 5 (Herbicidal effect/phytotoxicity was 90% or greater) | 5 (Herbicidal effect/phytotoxicity was 90% or greater) | 5 (Herbicidal effect/phytotoxicity was 90% or greater) | 0 (Herbicidal effect/phytotoxicity was 0% to 10%) | 5 (Herbicidal effect/phytotoxicity was 90% or greater) | 5 (Herbicidal effect/phytotoxicity was 90% or greater) | 5 (Herbicidal effect/phytotoxicity was 90% or greater) | 1 (Herbicidal effect/phytotoxicity was 10% to 30%)
C#CCOc1cc(-c2c(Cl)n3n(c2=O)CCOCC3)c(F)cc1F [Example 1-368] | 5 (Herbicidal effect/phytotoxicity was 90% or greater) | 5 (Herbicidal effect/phytotoxicity was 90% or greater) | 5 (Herbicidal effect/phytotoxicity was 90% or greater) | 5 (Herbicidal effect/phytotoxicity was 90% or greater) | 5 (Herbicidal effect/phytotoxicity was 90% or greater) | 5 (Herbicidal effect/phytotoxicity was 90% or greater) | 5 (Herbicidal effect/phytotoxicity was 90% or greater) | 5 (Herbicidal effect/phytotoxicity was 90% or greater) | 0 (Herbicidal effect/phytotoxicity was 0% to 10%) | 5 (Herbicidal effect/phytotoxicity was 90% or greater) | 5 (Herbicidal effect/phytotoxicity was 90% or greater) | 5 (Herbicidal effect/phytotoxicity was 90% or greater) | 1 (Herbicidal effect/phytotoxicity was 10% to 30%)
C=C(Cl)COc1cc(-c2c(Cl)n3n(c2=O)CCCC3)c(F)cc1Cl [Example 1-369] | 5 (Herbicidal effect/phytotoxicity was 90% or greater) | 5 (Herbicidal effect/phytotoxicity was 90% or greater) | 5 (Herbicidal effect/phytotoxicity was 90% or greater) | 5 (Herbicidal effect/phytotoxicity was 90% or greater) | 5 (Herbicidal effect/phytotoxicity was 90% or greater) | 5 (Herbicidal effect/phytotoxicity was 90% or greater) | 5 (Herbicidal effect/phytotoxicity was 90% or greater) | 5 (Herbicidal effect/phytotoxicity was 90% or greater) | 0 (Herbicidal effect/phytotoxicity was 0% to 10%) | 5 (Herbicidal effect/phytotoxicity was 90% or greater) | 5 (Herbicidal effect/phytotoxicity was 90% or greater) | 5 (Herbicidal effect/phytotoxicity was 90% or greater) | 1 (Herbicidal effect/phytotoxicity was 10% to 30%)
